The source of these data is US20060035314A1, “Receptors and signalling proteins capable of binding meiotic acting sterols (MAS)” (priority 2000, published 2006).

The structures appear in SMILES notation.

The assay deals with Mouse Oocytes. In words: Microinjection of antisense/sense oligonucleotides into mouse oocytes; FF-MAS-triggered resumption of meiosis (GVBD). The assay is classed as cell-based. Particulars: 10 μM FF-MAS (24 hours); added 20 hours after injection of approx. 12 pg of each oligonucleotide; hypoxanthine containing medium. From the text:
Two antisense oligonucleotides (20 nucleotides) were utilized for microinjection: 5′-[…]-3′ and 5′-[…]-3′, complementary to the kozak sequence of the mRNA encoded by the cDNA sequence herein designated SAM1a and SAM1b, respectively, both of which are defined in SEQ ID NO: 1 and SEQ ID NO: 3, respectively, shown below. In control experiments, the corresponding sense oligonucleotides were microinjected: 5′-[…]-3′ and 5′-[…]-3′ for mRNA SAM1a and SAM1b, respectively. SAM1a antisense was co-injected with SAM1b antisense from a stock solution containing 1.25 μg/μl of each nucleotide in 10% human serum albumin (hereinafter designated HSA) plus 5 mM Tris (pH value: 7.5). SAM1a sense was co-injected with SAM1b sense from a stock solution containing 1.25 μg/μl of each nucleotide in 10% HSA plus 5 mM Tris (pH value: 7.5). Approximately 12 pg of each oligonucleotide ([…]) were injected into the cytoplasma of individual germinal vesicle (GV)-stage oocytes loaded in a droplet of alpha-MEM supplemented with 0.8% HSA and 3 mM hypoxantine under mineral oil in a 35 mm petri dish on the stage of an inverted microscope. […] The effect of FF-MAS was evaluated after 24 hours of further incubation as the number of oocytes in germinal vesicle breakdown (hereinafter designated GVBD). […]

`CC(C)=CCC[C@@H](C)[C@H]1CC=C2C3=C(CC[C@@]21C)[C@@]1(C)CC[C@H](O)C(C)(C)[C@@H]1CC3` [FF-MAS, 4,4-dimethyl-5α-cholesta-8,14,24-triene-3β-ol]: the “GVBD/GVBD + GV” value was 26/29.
